Test results taken from PubChem BioAssay (NCI).
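Compound exposure: 48 hours, 5 concentrations, 96-well plates. TGI marks complete inhibition of growth.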

How the values were obtained:
Assay in all cases: inhibition of tumour cell growth, NCI panel, 48 h
K-562 leukemia = test system: K-562 leukemia
OVCAR-4 ovarian = test system: OVCAR-4 ovarian
SN12C renal = test system: SN12C renal
SK-MEL-5 melanoma = test system: SK-MEL-5 melanoma
SK-MEL-2 melanoma = test system: SK-MEL-2 melanoma
M14 melanoma = test system: M14 melanoma
MCF7 breast = test system: MCF7 breast
NCI-H460 lung = test system: NCI-H460 lung
RPMI-8226 leukemia = test system: RPMI-8226 leukemia
NCI-H226 lung = test system: NCI-H226 lung
HOP-92 NSCLC = test system: HOP-92 NSCLC
NCI/ADR-RES ovarian = test system: NCI/ADR-RES ovarian
MDA-N = test system: MDA-N
HCC-2998 colon = test system: HCC-2998 colon
CAKI-1 renal = test system: CAKI-1 renal
OVCAR-5 ovarian = test system: OVCAR-5 ovarian
T-47D breast = test system: T-47D breast
MDA-MB-231 breast = test system: MDA-MB-231 breast
UACC-257 melanoma = test system: UACC-257 melanoma
NCI-H522 lung = test system: NCI-H522 lung
HCT-116 colon = test system: HCT-116 colon
RXF 393 renal = test system: RXF 393 renal
SNB-19 CNS = test system: SNB-19 CNS
SF-268 CNS = test system: SF-268 CNS
KM12 colon = test system: KM12 colon
SK-MEL-28 melanoma = test system: SK-MEL-28 melanoma
MALME-3M melanoma = test system: MALME-3M melanoma
NCI-H23 lung = test system: NCI-H23 lung
U251 CNS = test system: U251 CNS
UO-31 renal = test system: UO-31 renal
786-0 renal = test system: 786-0 renal
MDA-MB-435 = test system: MDA-MB-435
UACC-62 melanoma = test system: UACC-62 melanoma
EKVX NSCLC = test system: EKVX NSCLC
SK-OV-3 ovarian = test system: SK-OV-3 ovarian
OVCAR-3 ovarian = test system: OVCAR-3 ovarian
LOX IMVI melanoma = test system: LOX IMVI melanoma
SR leukemia = test system: SR leukemia
HCT-15 colon = test system: HCT-15 colon
TK-10 renal = test system: TK-10 renal
A498 renal = test system: A498 renal
OVCAR-8 ovarian = test system: OVCAR-8 ovarian
SF-295 CNS = test system: SF-295 CNS
COLO 205 colon = test system: COLO 205 colon
DU-145 prostate = test system: DU-145 prostate
ACHN renal = test system: ACHN renal
HS 578T breast = test system: HS 578T breast
SW-620 colon = test system: SW-620 colon
HT29 colon = test system: HT29 colon
A549 NSCLC = test system: A549 NSCLC
HOP-62 NSCLC = test system: HOP-62 NSCLC
BT-549 breast = test system: BT-549 breast
MOLT-4 leukemia = test system: MOLT-4 leukemia
PC-3 prostate = test system: PC-3 prostate
HL-60(TB) leukemia = test system: HL-60(TB) leukemia
IGROV1 ovarian = test system: IGROV1 ovarian
SNB-75 CNS = test system: SNB-75 CNS
SF-539 CNS = test system: SF-539 CNS
CCRF-CEM leukemia = test system: CCRF-CEM leukemia

SMILES: NS(=O)(=O)c1nnc(NS(=O)(=O)c2ccccc2C(=O)O)s1
- TGI (K-562 leukemia): > 100 µM
- TGI (OVCAR-4 ovarian): > 100 µM
- TGI (SN12C renal): > 100 µM
- TGI (SK-MEL-5 melanoma): > 100 µM
- TGI (SK-MEL-2 melanoma): > 100 µM
- TGI (M14 melanoma): > 100 µM
- TGI (MCF7 breast): > 100 µM
- TGI (NCI-H460 lung): > 100 µM
- TGI (RPMI-8226 leukemia): > 100 µM
- TGI (NCI-H226 lung): > 100 µM
- TGI (HOP-92 NSCLC): > 100 µM
- TGI (NCI/ADR-RES ovarian): > 100 µM
- TGI (MDA-N): > 100 µM
- TGI (HCC-2998 colon): > 100 µM
- TGI (CAKI-1 renal): > 100 µM
- TGI (OVCAR-5 ovarian): > 100 µM
- TGI (T-47D breast): > 100 µM
- TGI (MDA-MB-231 breast): > 100 µM
- TGI (UACC-257 melanoma): > 100 µM
- TGI (NCI-H522 lung): > 100 µM
- TGI (HCT-116 colon): > 100 µM
- TGI (RXF 393 renal): > 100 µM
- TGI (SNB-19 CNS): > 100 µM
- TGI (SF-268 CNS): > 100 µM
- TGI (KM12 colon): > 100 µM
- TGI (SK-MEL-28 melanoma): > 100 µM
- TGI (MALME-3M melanoma): > 100 µM
- TGI (NCI-H23 lung): > 100 µM
- TGI (U251 CNS): > 100 µM
- TGI (UO-31 renal): > 100 µM
- TGI (786-0 renal): > 100 µM
- TGI (MDA-MB-435): > 100 µM
- TGI (UACC-62 melanoma): > 100 µM
- TGI (EKVX NSCLC): > 100 µM
- TGI (SK-OV-3 ovarian): > 100 µM
- TGI (OVCAR-3 ovarian): > 100 µM
- TGI (LOX IMVI melanoma): > 100 µM
- TGI (SR leukemia): > 100 µM
- TGI (HCT-15 colon): > 100 µM
- TGI (TK-10 renal): > 100 µM
- TGI (A498 renal): > 100 µM
- TGI (OVCAR-8 ovarian): > 100 µM
- TGI (SF-295 CNS): > 100 µM
- TGI (COLO 205 colon): > 100 µM
- TGI (DU-145 prostate): > 100 µM
- TGI (ACHN renal): > 100 µM
- TGI (HS 578T breast): > 100 µM
- TGI (SW-620 colon): > 100 µM
- TGI (HT29 colon): > 100 µM
- TGI (A549 NSCLC): > 100 µM
- TGI (HOP-62 NSCLC): > 100 µM
- TGI (BT-549 breast): > 100 µM
- TGI (MOLT-4 leukemia): > 100 µM

SMILES: COc1ccccc1NC(=O)O/N=C(/Cl)C(C)C
- TGI (K-562 leukemia): 10.9 µM
- TGI (SN12C renal): 31.7 µM
- TGI (SK-MEL-5 melanoma): 24.1 µM
- TGI (SK-MEL-2 melanoma): 31 µM
- TGI (M14 melanoma): 20.3 µM
- TGI (NCI-H460 lung): 37.5 µM
- TGI (RPMI-8226 leukemia): 4.71 µM
- TGI (NCI-H226 lung): 41.5 µM
- TGI (NCI/ADR-RES ovarian): 35.5 µM
- TGI (MDA-N): 26.8 µM
- TGI (HCC-2998 colon): 30.1 µM
- TGI (OVCAR-5 ovarian): 35.8 µM
- TGI (T-47D breast): 59.2 µM
- TGI (MDA-MB-231 breast): 18.3 µM
- TGI (UACC-257 melanoma): 26.8 µM
- TGI (NCI-H522 lung): 3.37 µM
- TGI (PC-3 prostate): 33.2 µM
- TGI (HCT-116 colon): 29.3 µM
- TGI (RXF 393 renal): 28.4 µM
- TGI (SNB-19 CNS): > 56.4 µM
- TGI (SF-268 CNS): 32.5 µM
- TGI (KM12 colon): 39.3 µM
- TGI (HL-60(TB) leukemia): 3.6 µM
- TGI (SK-MEL-28 melanoma): 27.8 µM
- TGI (IGROV1 ovarian): 32.7 µM
- TGI (SNB-75 CNS): 27.1 µM
- TGI (MALME-3M melanoma): 7.37 µM
- TGI (NCI-H23 lung): 28.8 µM
- TGI (U251 CNS): 30.6 µM
- TGI (UO-31 renal): 32.8 µM
- TGI (786-0 renal): 24.9 µM
- TGI (UACC-62 melanoma): 37.4 µM
- TGI (EKVX NSCLC): 29.6 µM
- TGI (SK-OV-3 ovarian): 32.7 µM
- TGI (OVCAR-3 ovarian): 16.3 µM
- TGI (LOX IMVI melanoma): 6.75 µM
- TGI (SR leukemia): 4.73 µM
- TGI (SF-539 CNS): 35.9 µM
- TGI (HCT-15 colon): 27 µM
- TGI (TK-10 renal): 26.5 µM
- TGI (A498 renal): 29.9 µM
- TGI (OVCAR-8 ovarian): 28.6 µM
- TGI (SF-295 CNS): 29.1 µM
- TGI (CCRF-CEM leukemia): 3.57 µM
- TGI (COLO 205 colon): 5.09 µM
- TGI (DU-145 prostate): 33.2 µM
- TGI (ACHN renal): 17.4 µM
- TGI (HS 578T breast): 67.9 µM
- TGI (SW-620 colon): 3.39 µM
- TGI (HT29 colon): 15.3 µM
- TGI (A549 NSCLC): 34.4 µM
- TGI (HOP-62 NSCLC): 17.1 µM
- TGI (BT-549 breast): 21.6 µM
- TGI (MOLT-4 leukemia): 4.5 µM
